Read-outs that look alike come from different tables or passages of the source.
Tests used:
[1] = test system: P. falciparum Dd2 Cytb F123L; test: SYBR Green ABS proliferation assay, NCGC00473217 selected clone G08; assay type: cell-based, Plasmodium falciparum; set-up: log AC50, mean: unit: log10(M); details: for AC50: Plasmodium falciparum; for log AC50, mean: cytochrome b mutant line
Procedure: (§1) As resistance selection studies implicated the parasite cytochrome bc1 complex in mediating reduced parasite susceptibility to both NCGC00473217 and NCGC00374598, we leveraged these drug-selected parasites to test for altered drug response to a panel of antimalarial compounds.
(§2) The P. falciparum parasite Dd2 line was cultured in vitro using standard conditions. […] Tissue culture flasks and assay plates were incubated at 37 °C under a gas mixture of 5% CO2, 5% O2 and 90% N2. […] Significant differences were assessed using two-sided Student’s t-tests. All HTS assays were stopped and read at 72 h. Percent response values represent relative growth as judged by SYBR Green-I fluorescence intensity values normalized to controls.
(§3) Fresh uninfected RBCs (0.5% hematocrit) were added on day 7 and media was changed every other day. […] Resistant parasites were maintained under drug media at a volume of 50 mL until a high parasitemia (> 5%) was achieved. Aliquots of the bulk resistant cultures were frozen in cryovials before cloning by limiting dilution in 96-well plates (seeded at 0.25 or 0.5 parasites/well)[70]. After 3 weeks of cloning, we screened for positive wells by flow cytometry with SYBR Green-stained cells. […] Parasites were harvested by saponin lysis at the trophozoite stage and genomic DNA was extracted using the QIAamp DNA Blood Midi Kit (Qiagen, Germantown, MD)[71].

[2] = test system: P. berghei-ANKA-GFP-LucCON liver stage parasites in HepG2-A16-CD81EGFP cells; test: P. berghei liver stage Pb-Luc assay, Method 1 (UCSD, 1536-well); assay type: cell-based, Plasmodium berghei; details: Method 1; for AC50: Plasmodium berghei
[3] = test system: Plasmodium falciparum Dd2 asexual blood stage parasites; test: microbe, parasite or virus in culture; set-up: species or system Plasmodium falciparum Dd2 in human erythrocytes; single determination (one 11-point concentration-response curve); details: Plasmodium falciparum, DD2, Erythrocyte, 72 h; read-out: AC50
[4] = test system: luciferase-expressing P. berghei liver stage parasites in HepG2 cells; test: Inhibition of liver-stage development assay (ILSDA), Method 2 (WRAIR, 96-well); assay type: cell-based, Plasmodium berghei; details: P. berghei liver stage, Method 2, dose response
[5] = test system: P. falciparum Dd2 Cytb G131S; test: SYBR Green ABS proliferation assay, NCGC00374598 selected clone C11; assay type: cell-based, Plasmodium falciparum; details: Plasmodium falciparum
Procedure: as §1, §2, §3

[6] = test system: P. falciparum Dd2 (clone B2) asexual blood stage parasites; test: P. falciparum Dd2 asexual blood stage SYBR Green-I 72 h proliferation assay (qHTS); assay type: cell-based, Plasmodium falciparum; details: Plasmodium falciparum, DD2, Dd2 parental; Hill fit, averaged from three independent replicates; top concentration 29 µM; read-out: Average AC50 (Log[M]), Dd2 (converted)
[7] = test system: P. falciparum Dd2 Cytb A122D; test: SYBR Green ABS proliferation assay, NCGC00473217 selected clone F12; assay type: cell-based, Plasmodium falciparum; details: Plasmodium falciparum
Procedure: as §1, §2, §3

[8] = test system: P. falciparum Dd2 Cytb V259L; test: SYBR Green ABS proliferation assay, NCGC00473217 selected clone F06; assay type: cell-based, Plasmodium falciparum; details: Plasmodium falciparum
Procedure: as §1, §2, §3

[9] = DD2, cytochrome b mutant line, fifth value triple, c15, […], read-out: log AC50, mean (converted)
[10] = DD2, […], averaged from three independent replicates, top concentration 29 µM, read-out: Average AC50 (Log[M]), NCGC00374598 clone C11 (Cytb G131S) (converted)
[11] = DD2, […], averaged from three independent replicates, top concentration 29 µM, read-out: Average AC50 (Log[M]), NCGC00473217 clone G08 (Cytb F123L) (converted)
[12] = DD2, […], averaged from three independent replicates, top concentration 29 µM, read-out: Average AC50 (Log[M]), NCGC00473217 clone F12 (Cytb A122D) (converted)
[13] = DD2, […], averaged from three independent replicates, top concentration 29 µM, read-out: Average AC50 (Log[M]), NCGC00473217 clone F06 (Cytb V259L) (converted)
[14] = DD2, cytochrome b mutant line, second value triple, c6, […], read-out: log AC50, mean (converted)
[15] = DD2, cytochrome b mutant line, fourth value triple, c12, […], read-out: log AC50, mean (converted)
[16] = DD2, cytochrome b mutant line, third value triple, c9, […], read-out: log AC50, mean (converted)

Compound	AC50 [5, 10] [M]	AC50 [6] [M]	AC50 [1, 11] [M]	AC50 [7, 12] [M]	AC50 [8, 13] [M]	also measured
O=c1[nH]c(N2CCOCC2)nc2c1CCN(Cc1ccc(Cl)cc1F)CC2 [NCGC00440653-01]						AC50 [1, 9]: 2.16e-06 M; log AC50, mean ([1]; fifth value triple, c15, […]): -5.475; Max Resp (signal direction of the dose response) ([2]; Decrease = decreasing P. berghei viability with dose, Increase = increasing signal, Inactive = no dose response): Inactive; AC50 [3]: 3350 nM; Activity direction (Decrease / Inactive) [4]: Inactive
CCCN1C(CC(C)C)=N[S+](=O)([O-])c2cc(N)ccc21 [NCGC00521151-01]	2e-06	2e-05	3.99e-06			
CCCN1C(CC(C)C)=N[S+](=O)([O-])c2cc(NC(=O)c3ccc(-c4ccccc4)cc3)ccc21 [NCGC00521159-01]	7.1e-06	8.93e-06		8.93e-06	7.1e-06	
CCCN1C(CC(C)C)=N[S+](=O)([O-])c2cc(NC(=O)c3ccc(OC)cc3)ccc21 [NCGC00531533-02]	1.47e-06	2.52e-06	1e-06		1e-06	
NS(=O)(=O)c1cc2c(cc1C(F)(F)F)NC(Cc1ccccc1)NS2(=O)=O (centres unmarked) [NCGC00018194-08]	1e-08		8.93e-06		1.26e-06	
O=c1[nH]c(N2CCOCC2)nc2c1CCN(Cc1cc(Cl)ccc1F)CC2 [NCGC00440651-01]						AC50 [1, 9]: 2.16e-06 M; log AC50, mean ([1]; fifth value triple, c15, […]): -5.575; AC50 ([2]; Hill fit, 50% of maximum activity response, read-out: AC50): 2820 nM; AC50 ([2]; log10 of molar AC50 from Hill fit, read-out: Log AC50 (converted)): 2820 nM; AC50 [3]: 2370 nM; Activity direction (Decrease / Inactive) [4]: Inactive
CC(C)CC1=N[S+](=O)([O-])c2cc(NC(=O)c3cccs3)ccc2N1 [NCGC00532401-01]						AC50 [5, 14]: 2.82e-07 M; AC50 [1, 9]: 2.52e-09 M; AC50 [7, 15]: 7.1e-06 M
N[S+](=O)([O-])c1cc2c(cc1Cl)NCN[S+]2(=O)[O-] [NCGC00015508-23]	8.93e-07	7.1e-07		1.78e-07	5.64e-07	
CC(C)CC1=N[S+](=O)([O-])c2cc(NC(=O)c3ccc(F)cc3)ccc2N1 [NCGC00532402-01]						AC50 [7, 15]: 1.12e-06 M; AC50 [8, 16]: 3.99e-07 M
CCCN1C(CC(C)C)=N[S+](=O)([O-])c2cc(NC(=O)c3cnon3)ccc21 [NCGC00521034-01]			1.59e-06		1e-05	
CCCN1C(CC(C)C)=N[S+](=O)([O-])c2cc(NC(=O)c3ccc(-c4ccccc4)o3)ccc21 [NCGC00521160-01]			5.02e-06	3.17e-06	6.32e-06	
CCCN1C(CC(C)C)=N[S+](=O)([O-])c2cc(NC(=O)c3ccc(F)cc3)ccc21 [NCGC00521139-01]	3.56e-07	5.22e-07		4.74e-07	5.64e-07	
O=C(Nc1ccc2c(c1)[S+](=O)([O-])N=C1CCCN12)c1ccc(F)cc1 [NCGC00537667-01]						AC50 [5, 14]: 1.78e-05 M; AC50 [7, 15]: 1e-05 M; AC50 [8, 16]: 1.59e-05 M
CCCN1C(CC(C)C)=N[S+](=O)([O-])c2cc(NC(=O)c3cncs3)ccc21 [NCGC00521052-01]	6.58e-07	4.84e-06		1.72e-06	5.86e-06	
CN1C(CC2CCCCC2)=N[S+](=O)([O-])c2cc(NC(=O)c3ccc(F)s3)ccc21 [NCGC00651709-01]						AC50 [5, 14]: 5.96e-06 M; AC50 [1, 9]: 1.68e-05 M; AC50 [7, 15]: 5.31e-06 M
CCCN1C(CC(C)C)=N[S+](=O)([O-])c2cc(NC(=O)c3ccc(F)c(F)c3)ccc21 [NCGC00531540-01]	7.96e-07	5.22e-06	7.1e-07	3.99e-07		

Compound	AC50 [5, 10] [M]	AC50 [6] [M]	AC50 [1, 11] [M]	AC50 [7, 12] [M]	AC50 [8, 13] [M]	also measured
CCCN1C(CC(C)C)=N[S+](=O)([O-])c2cc(N[S+](=O)([O-])c3cccs3)ccc21 [NCGC00521163-01]		1.78e-05	1.12e-05	8.93e-06	1.59e-05	
CCCN1C(CC(C)C)=N[S+](=O)([O-])c2cc(NC(=O)C3CCCO3)ccc21 (centres unmarked) [NCGC00521155-01]		1.26e-05		8.93e-06	5.97e-06	
N[S+](=O)([O-])c1cc2c(cc1Cl)NC(C(Cl)Cl)N[S+]2(=O)[O-] (centres unmarked) [NCGC00018302-09]			5.02e-06	6.32e-07	1.42e-06	
O=C(Nc1ccc2c(c1)[S+](=O)([O-])N=C1CCCN12)c1cccs1 [NCGC00537660-01]						AC50 [1, 9]: 2e-09 M
CCCN1C(C)=N[S+](=O)([O-])c2cc(NC(=O)c3ccccc3)ccc21 [NCGC00522605-01]	2e-06	1e-05	3.56e-07			
CCCN1C(CC(C)C)=N[S+](=O)([O-])c2cc([N+](=O)[O-])ccc21 [NCGC00510308-01]			2.52e-09		1.59e-05	
CCCN1C(CC(C)C)=N[S+](=O)([O-])c2cc(NC(=O)COC)ccc21 [NCGC00521098-01]	3.56e-06	8.93e-06		1.12e-05	1.68e-05	
NS(=O)(=O)c1cc2c(cc1Cl)NC(C1CC3C=CC1C3)NS2(=O)=O (centres unmarked) [NCGC00015288-06]			5.64e-07	7.1e-07		
CCCN1C(CC(C)C)=N[S+](=O)([O-])c2cc(N[S+](=O)([O-])c3ccc(F)cc3)ccc21 [NCGC00521879-01]			6.32e-07			
CCCN1C(CC(C)C)=N[S+](=O)([O-])c2cc(NC(=O)c3cc4ccccc4o3)ccc21 [NCGC00521880-01]			1.34e-06	3.99e-06	4.48e-07	
CCCN1C(CC(C)C)=N[S+](=O)([O-])c2cc(NC(=O)c3ccc(C(F)(F)F)cc3)ccc21 [NCGC00531759-01]	2.52e-06			8.93e-10	8.93e-07	
CC(C)CC1=N[S+](=O)([O-])c2cc(NC(=O)c3cccs3)ccc2N1C [NCGC00521057-01]	2.24e-07	1.85e-06	1.89e-07	1e-06		
CCCN1C(CC(C)C)=N[S+](=O)([O-])c2cc(NC(=O)c3ccsc3)ccc21 [NCGC00521157-01]	2.08e-06	2e-06		8.93e-07	1.34e-06	
CCCN1C(CC(C)C)=N[S+](=O)([O-])c2cc(NC(=O)c3c(C)noc3C)ccc21 [NCGC00521866-01]	1e-05	1.78e-05	2.52e-06	7.52e-06		
CCCN1C(CC(C)C)=N[S+](=O)([O-])c2cc(NC(=O)c3ccc(OC(F)(F)F)cc3)ccc21 [NCGC00531538-01]		1.26e-06	1.78e-05	1.59e-06		

Reference: article PMC7822874, “Chemoprotective antimalarials identified through quantitative high-throughput screening of Plasmodium blood and liver stage parasites” (Scientific Reports, 2021)
